Assay results as given in patent US20230167127A1, “COMPOUNDS AND THEIR USE IN THE TREATMENT OF BACTERIAL INFECTION” (Hoffmann-La Roche Inc., priority 2020, published 2023).

The compounds below were run on Escherichia coli ATCC 25922 (assay: 50% growth inhibitory concentration (IC50) determination, Iso-Sensitest broth dilution). Conditions: Escherichia coli, ATCC25922, 16 h, strain Escherichia coli ATCC 25922; 10-point broth dilution, optical density at 600 nm over 16 h; read-out: Escherichia coli growth inhibition IC50.
Format: cell-based
In short: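 10-point twofold Iso-Sensitest broth dilution (e.g. 50 to 0.097 μM final) with DMSO stocks, incubated at 35±2° C. Growth followed by OD 600 nm every 20 min over 16 h; IC50 derived from growth inhibition during logarithmic phase.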
With `O=C1COc2ncc(N3CC(CCNCC4Cc5cncc(F)c5C4)OC3=O)nc2N1` (stereo not shown) [Example 287, 6-[5-[2-[(4-fluoro-6,7-dihydro-5H-cyclopenta[c]pyridin-6-yl)methylamino]ethyl]-2-oxo-1,3-oxazolidin-3-yl]-4H-pyrazino[2,3-b][1,4]oxazin-3-one] the IC50 was less than 97.7 nM.
`CNCCOc1nc(C)c2c(c1C)CC(CNCCC1CN(c3ccc4c(n3)NC(=O)CO4)C(=O)O1)C2` (stereo not shown) [Example 173, 6-[5-[2-[[1,4-dimethyl-3-[2-(methylamino)ethoxy]-6,7-dihydro-5H-cyclopenta[c]pyridin-6-yl]methylamino]ethyl]-2-oxo-1,3-oxazolidin-3-yl]-4H-pyrido[3,2-b][1,4]oxazin-3-one] showed an IC50 of 194 nM.
Work on `Cc1nc(Cl)c(F)c2c1CC(CNCCC1CN(c3cnc4c(n3)NC(=O)CO4)C(=O)O1)C2` (stereo not shown) [Example 398, 6-[5-[2-[(3-chloro-4-fluoro-1-methyl-6,7-dihydro-5H-cyclopenta[c]pyridin-6-yl)methylamino]ethyl]-2-oxo-1,3-oxazolidin-3-yl]-4H-pyrazino[2,3-b][1,4]oxazin-3-one] yielded an IC50 of less than 97.7 nM.
Compound `NCCOc1cc2c(c(Cl)n1)CC(CNCCC1CN(c3ccc4c(n3)NC(=O)CO4)C(=O)O1)C2` (stereo not shown) [Example 126, 6-[5-[2-[[3-(2-aminoethoxy)-1-chloro-6,7-dihydro-5H-cyclopenta[c]pyridin-6-yl]methylamino]ethyl]-2-oxo-1,3-oxazolidin-3-yl]-4H-pyrido[3,2-b][1,4]oxazin-3-one] has an IC50 of 260 nM.
`COc1cc2c(c(Cl)n1)CC(CNCCC1CN(c3ccc4c(n3)NC(=O)CO4)C(=O)O1)C2` (stereo not shown) [Example 49, 6-[5-[2-[(1-chloro-3-methoxy-6,7-dihydro-5H-cyclopenta[c]pyridin-6-yl)methylamino]ethyl]-2-oxo-1,3-oxazolidin-3-yl]-4H-pyrido[3,2-b][1,4]oxazin-3-one] showed an IC50 of 193 nM.
With `NC1c2cccc(Cl)c2CC1NCCCC1CN(c2cnc3c(n2)NC(=O)CO3)C(=O)O1` (racemic) [Example 245, 6-[2-oxo-5-[3-[[rac-1,2-trans-1-amino-4-chloro-2,3-dihydro-1H-inden-2-yl]amino]propyl]-1,3-oxazolidin-3-yl]-4H-pyrazino[2,3-b][1,4]oxazin-3-one] the IC50 was 119 nM.
`NCCOc1ncc2c(c1Cl)CC(CNCCC1CN(c3ccc4c(n3)NC(=O)CO4)C(=O)O1)C2` (stereo not shown) [Example 174, 6-[5-[2-[[3-(2-aminoethoxy)-4-chloro-6,7-dihydro-5H-cyclopenta[c]pyridin-6-yl]methylamino]ethyl]-2-oxo-1,3-oxazolidin-3-yl]-4H-pyrido[3,2-b][1,4]oxazin-3-one] gave an IC50 of less than 97.7 nM.
`CC(C)(N)COc1cc(F)c2c(c1F)CC(CNCCC1CN(c3cnc4c(n3)NC(=O)CO4)C(=O)O1)C2` (stereo not shown) [Example 411, 6-[5-[2-[[5-(2-amino-2-methylpropoxy)-4,7-difluoro-2,3-dihydro-1H-inden-2-yl]methylamino]ethyl]-2-oxo-1,3-oxazolidin-3-yl]-4H-pyrazino[2,3-b][1,4]oxazin-3-one; formic acid] was tested, and the IC50 was less than 97.7 nM.
For `Cc1ncc(F)c2c1CC(C(C)NCC[C@H]1CN(c3cnc4c(n3)NC(=O)CO4)C(=O)O1)C2` (stereo partly drawn) [Example 330, 6-[(5S)-5-[2-[1-(4-fluoro-1-methyl-6,7-dihydro-5H-cyclopenta[c]pyridin-6-yl)ethylamino]ethyl]-2-oxo-1,3-oxazolidin-3-yl]-4H-pyrazino[2,3-b][1,4]oxazin-3-one; formic acid], the IC50 was less than 97.7 nM.
Compound `CCn1cc(C(=O)O)c(=O)c2ccc3c(c21)CC(CNCCC1CN(c2cnc4c(n2)NC(=O)CO4)C(=O)O1)C3` (stereo not shown) [Example 276, 1-Ethyl-4-oxo-8-[[2-[2-oxo-3-(3-oxo-4H-pyrazino[2,3-b][1,4]oxazin-6-yl)-1,3-oxazolidin-5-yl]ethylamino]methyl]-8,9-dihydro-7H-cyclopenta[h]quinoline-3-carboxylic acid] has an IC50 of 635 nM.
`O=C1COc2ccc(N3CC(CNC4Cc5cccc(Cl)c5C4)OC3=O)nc2N1` (stereo not shown) [Example 22, 6-[5-[[(4-chloro-2,3-dihydro-1H-inden-2-yl)amino]methyl]-2-oxo-1,3-oxazolidin-3-yl]-4H-pyrido[3,2-b][1,4]oxazin-3-one] was tested, and the IC50 was 8530 nM.
With `N#Cc1cccc2c1CC(CNCCC1(N)CC(=O)N(c3ccc4c(n3)NC(=O)CO4)C1)C2` (stereo not shown) [Example 138, 2-[[2-[3-amino-5-oxo-1-(3-oxo-4H-pyrido[3,2-b][1,4]oxazin-6-yl)pyrrolidin-3-yl]ethylamino]methyl]-2,3-dihydro-1H-indene-4-carbonitrile] the IC50 was 359 nM.
For `NC1c2cccc(Cl)c2CC1CN1CC(C2CN(c3cnc4c(n3)NC(=O)CO4)C(=O)O2)C1` (racemic) [Example 205, 6-[5-[1-[(rac-1,2-trans-1-amino-4-chloro-2,3-dihydro-1H-inden-2-yl)methyl]azetidin-3-yl]-2-oxo-1,3-oxazolidin-3-yl]-4H-pyrazino[2,3-b][1,4]oxazin-3-one], the IC50 was 123 nM.
In the case of `N#Cc1cc(OCc2cnn[nH]2)cc2c1CC(CNCCC1CN(c3cnc4c(n3)NC(=O)CO4)C(=O)O1)C2` (stereo not shown) [Example 425, 2-[[2-[2-Oxo-3-(3-oxo-4H-pyrazino[2,3-b][1,4]oxazin-6-yl)-1,3-oxazolidin-5-yl]ethylamino]methyl]-6-(1N-triazol-5-ylmethoxy)-2,3-dihydro-1H-indene-4-carbonitrile], the IC50 is reported as 102 nM.
`Cc1nc(OC[C@@H]2CCN2)c(C)c2c1CC(CNCCC1CN(c3ccc4c(n3)NC(=O)CO4)C(=O)O1)C2` (stereo partly drawn) [Example 200, 6-[5-[2-[[3-[[(2S)-azetidin-2-yl]methoxy]-1,4-dimethyl-6,7-dihydro-5H-cyclopenta[c]pyridin-6-yl]methylamino]ethyl]-2-oxo-1,3-oxazolidin-3-yl]-4H-pyrido[3,2-b][1,4]oxazin-3-one] gave an IC50 of 320 nM.
With `Cc1ncc(F)c2c1CC(CNCCc1nn(-c3ccc4c(c3)NC(=O)CO4)c(=O)o1)C2` (stereo not shown) [Example 67, 6-[5-[2-[(4-fluoro-1-methyl-6,7-dihydro-5H-cyclopenta[c]pyridin-6-yl)methylamino]ethyl]-2-oxo-1,3,4-oxadiazol-3-yl]-4H-1,4-benzoxazin-3-one] the IC50 was 249 nM.
`CN1CCCC1COc1ccc2c(c1C#N)CC(CNCCC1CN(c3ccc4c(n3)NC(=O)CO4)C(=O)O1)C2` (stereo not shown) [Example 52, 5-[(1-methylpyrrolidin-2-yl)methoxy]-2-[[2-[2-oxo-3-(3-oxo-4H-pyrido[3,2-b][1,4]oxazin-6-yl)-1,3-oxazolidin-5-yl]ethylamino]methyl]-2,3-dihydro-1H-indene-4-carbonitrile; formic acid] was tested, and the IC50 was less than 97.7 nM.
For `Cc1ncc(Cl)c2c1CC(CNCCC1CN(c3ccc4c(n3)NC(=O)CO4)C(=O)O1)C2` (stereo not shown) [Example 55, 6-[5-[2-[(4-chloro-1-methyl-6,7-dihydro-5H-cyclopenta[c]pyridin-6-yl)methylamino]ethyl]-2-oxo-1,3-oxazolidin-3-yl]-4H-pyrido[3,2-b][1,4]oxazin-3-one; formic acid], the IC50 was less than 97.7 nM.

Same assay, conditions: strain Escherichia coli ATCC 25922; 10-point broth dilution, optical density at 600 nm over 16 h; read-out: Escherichia coli growth inhibition IC50
In the case of `O=C1COc2ncc(N3CC(CC(O)CNC4Cc5cccc(F)c5C4)OC3=O)nc2N1` (single isomer, unassigned; isomer b) [Example 84, 6-[5-[3-[(4-fluoro-2,3-dihydro-1H-inden-2-yl)amino]-2-hydroxypropyl]-2-oxo-1,3-oxazolidin-3-yl]-4H-pyrazino[2,3-b][1,4]oxazin-3-one, Isomer B; formic acid], the IC50 is reported as 217 nM.
